What was measured:
[1] = test system: SW-620 (colon cancer); experiment: NCI five-dose assay; assay type: cell-based; details: Homo sapiens, SW-620, SW-620, colon cancer
[2] = test system: SF-539 (CNS cancer); experiment: NCI five-dose assay; assay type: cell-based; details: Homo sapiens, SF-539, SF-539, CNS cancer
[3] = test system: LOX IMVI (melanoma); experiment: NCI five-dose assay; assay type: cell-based; details: Homo sapiens
[4] = test system: U251 (CNS cancer); experiment: NCI five-dose assay; assay type: cell-based; details: Homo sapiens, U-251, U251, CNS cancer
[5] = test system: K-562 (leukemia); experiment: NCI five-dose assay; assay type: cell-based; details: Homo sapiens, K562, K-562, leukemia
[6] = test system: CCRF-CEM (leukemia); experiment: NCI five-dose assay; assay type: cell-based; details: Homo sapiens
[7] = test system: HOP-92 (NSCL cancer); experiment: NCI five-dose assay; assay type: cell-based; details: Homo sapiens, HOP-92, HOP-92, NSCL cancer
[8] = test system: T-47D (breast cancer); experiment: NCI five-dose assay; assay type: cell-based; details: Homo sapiens, T47D
[9] = test system: RXF-393 (renal cancer); experiment: NCI five-dose assay; assay type: cell-based; details: Homo sapiens
[10] = test system: 786-0 (renal cancer); experiment: NCI five-dose assay; assay type: cell-based; details: Homo sapiens, 786-0, 786-0, renal cancer
[11] = test system: OVCAR-3 (ovarian cancer); experiment: NCI five-dose assay; assay type: cell-based; details: Homo sapiens, OVCAR-3, OVCAR-3, ovarian cancer
[12] = test system: NCI-H460 (NSCL cancer); experiment: NCI five-dose assay; assay type: cell-based; details: Homo sapiens
[13] = test system: CAKI-1 (renal cancer); experiment: NCI five-dose assay; assay type: cell-based; details: Homo sapiens, CAKI-1, CAKI-1, renal cancer
[14] = test system: OVCAR-5 (ovarian cancer); experiment: NCI five-dose assay; assay type: cell-based; details: Homo sapiens, OVCAR-5, OVCAR-5, ovarian cancer
[15] = test system: OVCAR-4 (ovarian cancer); experiment: NCI five-dose assay; assay type: cell-based; details: Homo sapiens, OVCAR-4, OVCAR-4, ovarian cancer
[16] = test system: NCI-H23 (NSCL cancer); experiment: NCI five-dose assay; assay type: cell-based; details: Homo sapiens
[17] = test system: MDA-MB-435 (breast cancer); experiment: NCI five-dose assay; assay type: cell-based; details: Homo sapiens, MDA-MB-435, MDA-MB-435, breast cancer
[18] = test system: MOLT-4 (leukemia); experiment: NCI five-dose assay; assay type: cell-based; details: Homo sapiens, MOLT-4, MOLT-4, leukemia
[19] = test system: SF-268 (CNS cancer); experiment: NCI five-dose assay; assay type: cell-based; details: Homo sapiens, SF-268, SF-268, CNS cancer
[20] = test system: HOP-62 (NSCL cancer); experiment: NCI five-dose assay; assay type: cell-based; details: Homo sapiens, HOP-62, HOP-62, NSCL cancer
[21] = test system: A549/ATCC (NSCL cancer); experiment: NCI five-dose assay; assay type: cell-based; details: Homo sapiens
[22] = test system: SK-MEL-2 (melanoma); experiment: NCI five-dose assay; assay type: cell-based; details: Homo sapiens, SK-MEL-2, SK-MEL-2, melanoma
[23] = test system: SF-295 (CNS cancer); experiment: NCI five-dose assay; assay type: cell-based; details: Homo sapiens, SF-295, SF-295, CNS cancer
[24] = test system: PC-3 (prostate cancer); experiment: NCI five-dose assay; assay type: cell-based; details: Homo sapiens
[25] = test system: HCT-15 (colon cancer); experiment: NCI five-dose assay; assay type: cell-based; details: Homo sapiens, HCT-15, HCT-15, colon cancer
[26] = test system: MDA-MB-231/ATCC (breast cancer); experiment: NCI five-dose assay; assay type: cell-based; details: Homo sapiens, MDA-MB-231, MDA-MB-231/ATCC
[27] = test system: SK-MEL-28 (melanoma); experiment: NCI five-dose assay; assay type: cell-based; details: Homo sapiens, SK-MEL-28, SK-MEL-28, melanoma
[28] = test system: ACHN (renal cancer); experiment: NCI five-dose assay; assay type: cell-based; details: Homo sapiens
[29] = test system: DU-145 (prostate cancer); experiment: NCI five-dose assay; assay type: cell-based; details: Homo sapiens, DU-145, DU-145, prostate cancer
[30] = test system: NCI-H322M (NSCL cancer); experiment: NCI five-dose assay; assay type: cell-based; details: Homo sapiens
[31] = test system: SK-MEL-5 (melanoma); experiment: NCI five-dose assay; assay type: cell-based, human
[32] = test system: SR (leukemia); experiment: NCI five-dose assay; assay type: cell-based; details: Homo sapiens
[33] = test system: 60 cancer cell lines; details: over the cell line panel
[34] = test system: EKVX (NSCL cancer); experiment: NCI five-dose assay; assay type: cell-based; details: Homo sapiens
[35] = test system: M14 (melanoma); experiment: NCI five-dose assay; assay type: cell-based; details: Homo sapiens
[36] = test system: UO-31 (renal cancer); experiment: NCI five-dose assay; assay type: cell-based; details: Homo sapiens, UO-31, UO-31, renal cancer
[37] = test system: TK-10 (renal cancer); experiment: NCI five-dose assay; assay type: cell-based; details: Homo sapiens, TK-10, TK-10, renal cancer
[38] = test system: SNB-19 (CNS cancer); experiment: NCI five-dose assay; assay type: cell-based; details: Homo sapiens, SNB-19, SNB-19, CNS cancer
[39] = test system: MCF-7 (breast cancer); experiment: NCI five-dose assay; assay type: cell-based; details: Homo sapiens, MCF7, MCF-7, breast cancer

COc1ccc(C2C3=C(Sc4[nH]c(=O)sc42)C(=O)c2ccccc2C3=O)cc1OC (stereo not shown) [Compound 4f, 11-(3,4-Dimethoxyphenyl)-3,11-dihydro-2H-benzo[6,7]thiochromeno[2,3-d][1,3]thiazole-2,5,10-trione]
GI50 [1]: 3.96 µM | GI50 [2]: 3.17 µM | GI50 [3]: 1.26 µM | GI50 [4]: 4.27 µM | GI50 [5]: 4.97 µM | GI50 [6]: 4.38 µM | GI50 [7]: 5.26 µM | GI50 [8]: 3.42 µM | GI50 [9]: 2.27 µM | GI50 [10]: 15.2 µM | GI50 [11]: 3.01 µM | GI50 [12]: 2.18 µM | GI50 [13]: 11.2 µM | GI50 [14]: 17.7 µM | GI50 [15]: 2.48 µM | GI50 [16]: 1.68 µM | GI50 [17]: 2.19 µM | GI50 [18]: 3.88 µM | GI50 [19]: 4.89 µM | GI50 [20]: 5.87 µM | GI50 [21]: 2.35 µM | GI50 [22]: 4.19 µM | GI50 [23]: 3.77 µM | GI50 [24]: 5.41 µM | GI50 [25]: 3.51 µM | GI50 [26]: 3.13 µM | GI50 [27]: 6.22 µM | GI50 [28]: 9.24 µM | GI50 [29]: 1.68 µM | GI50 [30]: 3.78 µM | GI50 ([31]; Homo sapiens, SK-MEL-5, SK-MEL-5, melanoma): 1.52 µM | TGI of the most sensitive cell line ([31]; SK-MEL-5 /melanoma/): 1.52 / 2.85 μM | GI50 [32]: 3.96 µM | TGI MG_MID [33]: 14.79 µM | GI50 [34]: 4.97 µM | GI50 [35]: 2.67 µM | GI50 [36]: 10.8 µM | GI50 [37]: 17.6 µM | GI50 [38]: 4.49 µM | GI50 [39]: 2.25 µM

From article PMC3700073, “Synthesis and Biological Activity of New Thiopyrano[2,3-d]thiazoles Containing a Naphthoquinone Moiety” (Scientia Pharmaceutica, 2013)
